In patent publication US8946201B2, “Methods for inhibiting TGF-β” (Saint Louis University, priority 2007, dated 2015):

Legend:
Assay type in all cases: cell-based, mink
[1] = test system: luciferase reporter gene driven by the PAI-1 promoter; test: Luciferase activity assay, MLECs-clone 32
Procedure: (§1) (A, B, C, D, E, F) Cells were treated with 50 μg/ml cholesterol (A, B, C, D) and 50 μg/ml LDL (D) at 37° C. for 1 hr or with 1 μM fluvastatin or lovastatin (E) or several concentrations of fluvastatin (F) at 37° C. for 16 hr and then further incubated with increasing concentrations (as indicated) of TGF-β1 (A, B, C, E) or 50 pM TGF-β1 (D,F) for 2 hr. Northern blot analysis of PAI-1 and G3PDH was performed. A representative of a total of three analyses is shown (a). The relative intensities of the transcripts were quantified with a PhosphoImager. The ratio of the relative intensities of PAI-1 and G3PDH transcripts in cells treated without TGF-β1 and cholesterol, LDL or statins on the blot was taken as 1 fold or 100% of PAI-1 expression. The quantitative data from three independent analyses is shown (b). […] (G) Mv1Lu cells stably expressing a luciferase reporter gene driven by the PAI-1 promoter (MLECs-clone 32) were treated with increasing concentrations (as indicated) of cholesterol at 37 EC for 1 hr (a) or with 1 μM lovastatin at 37° C. for 16 hr (b) and then further incubated with 50 pM TGF-β for 7 hr. The luciferase activity in cells treated without cholesterol was taken as 100% (a). […] (H) Cells were incubated with 0.0625 and 0.125 pM TGF-β1 in the presence of increasing concentrations of cholesterol, as indicated. […] The experiments were carried out in triplicate.

[2] = test system: TβR-I and TβR-II; test: Lipid raft / non-lipid raft localization by sucrose density gradient ultracentrifugation, Mv1Lu cells; settings: for plasma membrane microdomain localization of TβR-II (FIG. 5F): 1 μM statin 16 hr, nystatin 25 μg/ml or cholesterol 50 μg/ml 1 hr
Procedure: (A, B, C, D) Cells were treated with or without 50 μg/ml cholesterol (A,B,C,D) or several concentrations of cholesterol, as indicated in the presence and absence of 1% β-CD (E) at 37° C. for 1 hr and further incubated with (C,D) and without (A,B) 50 pM TGF-β1 for 1 hr. The cell lysates from these treated cells were subjected to sucrose density gradient ultracentrifugation. After ultracentrifugation, fractions were collected and analyzed by 7.5% SDS-PAGE followed by Western blot analysis using antibodies to TβR-I, TβR-II and caveolin-1. […] Fractions 4 and 5 represent fractions containing lipid rafts/caveolae whereas fractions 7 and 8 represent non-lipid raft fractions.
(F, G) Cells were treated with or without 1 μM lovastatin/fluvastatin or nystatin (25 μg/ml)/cholesterol (50 μg/ml) at 37° C. for 16 hr or 1 hr, respectively. The treated cells were directly analyzed by sucrose density gradient ultracentrifugation analysis (F) or further incubated with 50 pM TGF-β at 37° C. for several time periods as indicated (G). Western blot analysis of the sucrose density gradient fractions (F) and of TGF-β1-treated cell lysates (G) was performed using antibody to TβR-II. The relative levels of TβR-II and α-actin were quantified by densitometry. Fractions ⅘ and 7 represent lipid raft/caveolae and non-lipid raft fractions, respectively. The asterisk (*) indicates the increased level of TβR-II in the fraction (F). The ratio of the relative intensities of TβR-II and α-actin in cells treated without TGF-β1 was taken as 100% of the TβR-II level. A representative of a total of three independent analyses is shown (G, top). The quantitative data from three independent analyses is shown (G, bottom). The data bar represents the mean±S.D.
Mv1Lu, CHO-K1, or NRK cells were grown to near confluence in 100-mm dishes (5-10×10^6 per dish). Cells were incubated with cholesterol ([…]) at 37° C. for 1 hours and then incubated with TGF-β1 (100 pM) for 1 hr. After two washes with ice-cold phosphate-buffered saline, cells were scraped into 0.85 ml of 500 mM sodium carbonate, pH 11.0. Homogenization was carried out with 10 strokes of a tight-fitting Dounce homogenizer followed by three 20-s bursts of ultrasonic disintegrator, (Soniprep 150; Fisher Scientific) to disrupt cellular membranes as described previously (32). The homogenates were adjusted to 45% sucrose by addition of 0.85 ml of 90% sucrose in 25 mM 2-(N-morpholino) ethanesulfonic acid, pH 6.5, 0.15 M NaCl (MBS), and placed at the bottom of an ultracentrifuge tube. […] Ten 0.5-ml fractions were collected from the top of the tubes, and a portion of each fraction was analyzed by SDS-PAGE followed by Western blot analysis using antibodies to TβR-I and TβR-II and caveolin-1. […]

[3] = test system: PAI-1 expression; test: TGF-β1-induced PAI-1 expression, Northern blot, Mv1Lu cells; settings: for enhancement of PAI-1 expression: 1 μM, 16 hr
Procedure: as §1

SMILES | effect of cholesterol alone on TGF-β-stimulated luciferase activity ([1]; 25 ug/ml, without lovastatin) | suppression of TGF-β1-stimulated luciferase activity ([1]; 50 μg/ml, 50 pM TGF-β1) [%] | luciferase activity ([1]; cells treated with cholesterol (25 ug/ml), lovastatin and TGF-β1) [A.U] | effect on the stimulatory effect of lovastatin on TGF-β-stimulated luciferase activity ([1]; cholesterol 25 ug/ml for 1 hr prior to TGF-β stimulation) | plasma membrane microdomain localization of TβR-II (FIG. 5F) [2] | localization of TβR-I and TβR-II in plasma membrane fractions ([2]; 50 μg/ml, 1 hr, fractions 4 and 5) | suppression of TGF-β1-stimulated PAI-1 expression ([3]; 50 μg/ml, TGF-β1 2 to 100 pM, Mv1Lu cells) | enhancement of TGF-β1-stimulated luciferase activity ([1]; 1 μM, 16 hr, 50 pM TGF-β1) [fold] | enhancement of PAI-1 expression ([3]; 10 pM TGF-β1, Mv1Lu cells) | enhancement of PAI-1 expression ([3]; 50 pM TGF-β1, Mv1Lu cells) [fold] | effect on the LDL and cholesterol suppression of PAI-1 expression ([3]; 25 μg/ml nystatin present, data not shown)
CC(C)CCC[C@@H](C)[C@H]1CC[C@H]2[C@@H]3CC=C4C[C@@H](O)CC[C@]4(C)[C@H]3CC[C@]12C [cholesterol] | did not alter | 40 | 2314±120 | abolished | increased the localization of TβR-II in lipid rafts/caveolae | enriched in the lipid raft/caveolae fractions | 65-70% |  |  |  | 
CC[C@H](C)C(=O)O[C@H]1C[C@@H](C)C=C2C=C[C@H](C)[C@H](CC[C@@H]3C[C@@H](O)CC(=O)O3)[C@H]21 [lovastatin, reference compound] |  |  |  |  | increased the localization of TβR-II in non-lipid raft microdomains |  |  | 1.7 | did not enhance | 3 | 
C[C@@H]1[C@H](O)[C@@H](C)/C=C/C=C/CC/C=C/C=C/C=C/C=C/C(O[C@H]2O[C@H](C)[C@@H](O)[C@H](N)[C@@H]2O)CC2O[C@](O)(CC(O)C(O)CCC(O)CC(O)CC(O)CC(=O)O[C@H]1C)CC(O)C2C(=O)O (stereo partly shown) [nystatin, reference compound] |  |  |  |  | increased the localization of TβR-II in non-lipid raft microdomains |  |  |  |  |  | abolished
